The nature of data set [1]: Toxicity in Balb/c mouse assessed as cell swelling in liver at 20 mg/kg, ip measured after 7 days by H and E staining based analysis. It is filed as organism-based. The following applies: in vivo, 168 h, time 7 day.
The nature of data set [2]: Toxicity in Balb/c mouse assessed as inflammatory cell infiltration in liver at 20 mg/kg, ip measured after 7 days by H and E staining based analysis. As to conditions: in vivo, 168 h, time 7 day. It is filed as organism-based.
Data set [3] in a line: Toxicity in Balb/c mouse assessed as cell swelling in kidney at 20 mg/kg, ip measured after 7 days by H and E staining based analysis. It is filed as organism-based. The following applies: in vivo, 168 h, time 7 day.
A short description of data set [4]: Toxicity in Balb/c mouse assessed as spleen atrophy at 20 mg/kg, ip measured after 7 days. It is filed as organism-based. The following applies: in vivo, 168 h, time 7 day.
Data set [5] in a line: Toxicity in Balb/c mouse assessed as cell swelling in lung at 20 mg/kg, ip measured after 7 days by H and E staining based analysis. It is filed as organism-based. The following applies: in vivo, 168 h, time 7 day.
The nature of data set [6]: Toxicity in Balb/c mouse assessed as inflammatory cell infiltration in kidney at 20 mg/kg, ip measured after 7 days by H and E staining based analysis. It is filed as organism-based. The following applies: in vivo, 168 h, time 7 day.
The nature of data set [7]: Toxicity in Balb/c mouse assessed as change in liver co-efficient at 20 mg/kg, ip measured after 7 days. It is filed as organism-based. The following applies: in vivo, 168 h, time 7 day.
Data set [8] in a line: Toxicity in Balb/c mouse assessed as change in serum CREA level at 20 mg/kg, ip measured after 7 days. It is filed as organism-based. The following applies: in vivo, 168 h, time 7 day.
The nature of data set [9]: Toxicity in Balb/c mouse assessed as cell swelling in spleen at 20 mg/kg, ip measured after 7 days by H and E staining based analysis. It is filed as organism-based. As to conditions: in vivo, 168 h, time 7 day.
A short description of data set [10]: Toxicity in Balb/c mouse assessed as spleen pigmentation at 20 mg/kg, ip measured after 7 days. It is filed as organism-based. As to conditions: in vivo, 168 h, time 7 day.
Data set [11] can be described thus: Toxicity in Balb/c mouse assessed as change in serum AST level at 20 mg/kg, ip measured after 7 days. The following applies: in vivo, 168 h, time 7 day. It is filed as organism-based.
Data set [12] in a line: Toxicity in Balb/c mouse assessed as kidney atrophy at 20 mg/kg, ip measured after 7 days. It is filed as organism-based. The following applies: in vivo, 168 h, time 7 day.
A short description of data set [13]: Toxicity in Balb/c mouse assessed as kidney pigmentation at 20 mg/kg, ip measured after 7 days. It is filed as organism-based. As to conditions: in vivo, 168 h, time 7 day.
Data set [14] in a line: Toxicity in Balb/c mouse assessed as change in serum BUN level at 20 mg/kg, ip measured after 7 days. It is filed as organism-based. As to conditions: in vivo, 168 h, time 7 day.
Data set [15] is described as follows: Toxicity in Balb/c mouse assessed as change in serum ALT level at 20 mg/kg, ip measured after 7 days. It is filed as organism-based. The following applies: in vivo, 168 h, time 7 day.
Data set [16] deals with Staphylococcus epidermidis. As to the kind of experiment: Antibacterial activity against Staphylococcus epidermidis ATCC 12228 incubated for 18 to 24 hrs by broth microdilution method. It is filed as functional. The following applies: time 18-24 hrs. For orientation: In broth dilution the organism is exposed to a series of concentrations in liquid medium.
Data set [17] concerns Staphylococcus aureus. As to the kind of experiment: Induction of drug resistance in methicillin-resistant Staphylococcus aureus ATCC 33591 assessed as fold increase in MIC at sub-MIC measured after 8 passages relative to control. It is filed as functional.
Data set [18] deals with Staphylococcus aureus. As to the kind of experiment: Induction of drug resistance in Staphylococcus aureus ATCC 25923 assessed as fold increase in MIC at sub-MIC measured after 7 passages relative to control. It is filed as functional.
Data set [19] concerns Staphylococcus aureus. The data set can be described thus: Induction of drug resistance in methicillin-resistant Staphylococcus aureus ATCC 33591 at sub-MIC measured after 4 passages. It is filed as functional, organism-based.
Data set [20] concerns Staphylococcus aureus. The data set can be described thus: Antibacterial activity against Staphylococcus aureus ATCC 25923 incubated for 18 to 24 hrs by broth microdilution method. It is filed as functional. As to conditions: time 18-24 hrs.
Data set [21] deals with Staphylococcus aureus. As to the kind of experiment: Antibacterial activity against polymyxin B-resistant Staphylococcus aureus ATCC 25923 incubated for 18 to 24 hrs. It is filed as functional. As to conditions: time 18-24 hrs.
In data set [22] the test system is Staphylococcus aureus. The data set can be described thus: Antibacterial activity against drug-resistant methicillin-resistant Staphylococcus aureus ATCC 33591 incubated for 18 to 24 hrs. It is filed as functional. As to conditions: time 18-24 hrs.
In data set [23] the test system is Staphylococcus aureus. The data set can be described thus: Antibacterial activity against ciprofloxacin-resistant Staphylococcus aureus ATCC 25923 incubated for 18 to 24 hrs. It is filed as functional. The following applies: time 18-24 hrs.
Data set [24] deals with Staphylococcus aureus. The data set can be described thus: Antibacterial activity against drug-resistant Staphylococcus aureus ATCC 25923 incubated for 18 to 24 hrs. As to conditions: time 18-24 hrs. It is filed as functional.
For data set [25], the system named is Staphylococcus aureus. As to the kind of experiment: Antibacterial activity against polymyxin B-resistant methicillin-resistant Staphylococcus aureus ATCC 33591 incubated for 18 to 24 hrs. The following applies: time 18-24 hrs. It is filed as functional.
Data set [26] relates to Staphylococcus aureus. As to the kind of experiment: Induction of drug resistance in Staphylococcus aureus ATCC 25923 at sub-MIC measured after 2 passages. It is filed as functional, organism-based.
Data set [27] concerns Staphylococcus aureus. The data set can be described thus: Antibacterial activity against ciprofloxacin-resistant methicillin-resistant Staphylococcus aureus ATCC 33591 incubated for 18 to 24 hrs. It is filed as functional. The following applies: time 18-24 hrs.
In data set [28] the test system is Enterococcus faecalis. The data set can be described thus: Antibacterial activity against Enterococcus faecalis ATCC 29212 incubated for 18 to 24 hrs by broth microdilution method. It is filed as functional. As to conditions: time 18-24 hrs.
In data set [29] the test system is Staphylococcus aureus. As to the kind of experiment: Antibacterial activity against methicillin-resistant Staphylococcus aureus ATCC 33591 incubated for 18 to 24 hrs by broth microdilution method. It is filed as functional. As to conditions: time 18-24 hrs.
Data set [30] relates to Staphylococcus aureus. The data set can be described thus: Antibacterial activity against Staphylococcus aureus ATCC 29213 incubated for 18 to 24 hrs by broth microdilution method. It is filed as functional. The following applies: time 18-24 hrs.

Activity calls are given as the source filed them. The calls are words filed in the database; no cut-off is given here. Where a SMILES comes first, the peptide text is derived from it. Bridges are numbered along the chain shown (N, C = ends). [ ]: non-standard residue; d: D form. The star is where a group is joined. X1 = CC[C@H](C)CCCCC(=O)*; Dab = NCC[C@H](N)C(=O)O

For the compound `CC(C)CCCCC(=O)N[C@@H](CCN)C(=O)N[C@H](C(=O)N[C@@H](CCN)C(=O)N[C@H]1CCNC(=O)[C@H]([C@@H](C)O)NC(=O)[C@H](CCN)NC(=O)[C@H](CCN)NC(=O)[C@H](CC(C)C)NC(=O)[C@@H](Cc2ccccc2)NC(=O)[C@H](CCN)NC1=O)[C@@H](C)O.CC[C@H](C)CCCCC(=O)N[C@@H](CCN)C(=O)N[C@H](C(=O)N[C@@H](CCN)C(=O)N[C@H]1CCNC(=O)[C@H]([C@@H](C)O)NC(=O)[C@H](CCN)NC(=O)[C@H](CCN)NC(=O)[C@H](CC(C)C)NC(=O)[C@@H](Cc2ccccc2)NC(=O)[C@H](CCN)NC1=O)[C@@H](C)O` (X1-[Dab]T[Dab][Dab][Dab][dF]L[Dab][Dab]T; lactam 4-C), the Activity entry in data set [1], in data set [2], in [3], in data set [4], in data set [5] and in [6] was “Toxic” throughout. Besides, the Activity entry is on record as “Toxic” in data set [7]; “Toxic” in [8]; “Toxic” in data set [9]; “Toxic” in data set [10]; “Non-toxic” in data set [11]; “Toxic” in data set [12]. The figures for the Activity entry in [13], in [14] and in [15] were “Toxic”, “Non-toxic” and “Non-toxic”, respectively.
Regarding `CNC(C)[C@@H]1CC[C@@H](N)[C@@H](O[C@H]2[C@H](O)[C@@H](O[C@H]3OC[C@](C)(O)[C@H](NC)[C@H]3O)[C@H](N)C[C@@H]2N)O1.CN[C@@H]1[C@@H](O)[C@@H](O[C@@H]2[C@@H](O)[C@H](O[C@H]3O[C@H](C(C)N)CC[C@H]3N)[C@@H](N)C[C@H]2N)OC[C@]1(C)O.CN[C@@H]1[C@@H](O)[C@@H](O[C@@H]2[C@@H](O)[C@H](O[C@H]3O[C@H](CN)CC[C@H]3N)[C@@H](N)C[C@H]2N)OC[C@]1(C)O` (stereo not given in full), the MIC – broadly, the least concentration at which growth counts as inhibited – in data set [16] is 1 µM; in data set [20], 16 µM; in data set [21], 128 µM; in [22] it was 128 µM; in data set [23] it was 128 µM; in data set [24] it was 128 µM. Moreover, the MIC in [25] is greater than 128 µM; in data set [27], greater than 128 µM; in [28] it was 16 µM; in data set [29] it was 128 µM; in [30], 16 µM. The “fold change (FC)” value in [17] is on record as 256; in [18], 64. The result in data set [19] and in data set [26] was Active.

The values are drawn from ChEMBL document CHEMBL6114969, “Ultra-short lipopeptides containing d-amino acid exhibiting excellent stability and antibacterial activity against gram-positive bacteria” (Eur J Med Chem, 2025).
